Laboratory results from publication PMC2923755, “Thermolability of mutant MMACHC protein in the vitamin B12-responsive cblC disorder” (Molecular Genetics and Metabolism, 2010).

T1: His-MMACHC-wt (Homo sapiens, UniProt Q9Y4U1)
T1 construct: made in house; host or cells: E. coli BL21 DE3
T1 sequence (Q9Y4U1 1-282): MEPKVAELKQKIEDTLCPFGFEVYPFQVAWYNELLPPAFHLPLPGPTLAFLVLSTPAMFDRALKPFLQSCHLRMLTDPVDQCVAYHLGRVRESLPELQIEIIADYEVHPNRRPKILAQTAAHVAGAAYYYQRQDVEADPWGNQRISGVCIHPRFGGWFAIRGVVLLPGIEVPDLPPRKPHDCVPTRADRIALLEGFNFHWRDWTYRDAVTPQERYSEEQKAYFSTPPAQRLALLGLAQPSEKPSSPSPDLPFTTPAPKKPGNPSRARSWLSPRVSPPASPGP

T2: MMACHC-wt (Homo sapiens, UniProt Q9Y4U1)
T2 construct: His-tag (N, cleaved yes); made in house; host or cells: E. coli BL21 DE3
T2 sequence (Q9Y4U1 1-282): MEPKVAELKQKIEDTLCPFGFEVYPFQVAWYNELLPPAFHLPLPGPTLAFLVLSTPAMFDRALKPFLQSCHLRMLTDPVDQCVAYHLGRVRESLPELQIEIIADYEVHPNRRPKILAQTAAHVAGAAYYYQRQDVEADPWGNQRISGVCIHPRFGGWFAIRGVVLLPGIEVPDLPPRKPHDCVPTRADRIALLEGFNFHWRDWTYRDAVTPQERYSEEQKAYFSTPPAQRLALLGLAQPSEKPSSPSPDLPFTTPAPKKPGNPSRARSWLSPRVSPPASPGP

T3: MMACHC-R161Q (Homo sapiens, UniProt Q9Y4U1, R161Q)
T3 construct: His-tag (N, cleaved yes); made in house; host or cells: E. coli BL21 DE3
T3 sequence (Q9Y4U1 1-282 R161Q): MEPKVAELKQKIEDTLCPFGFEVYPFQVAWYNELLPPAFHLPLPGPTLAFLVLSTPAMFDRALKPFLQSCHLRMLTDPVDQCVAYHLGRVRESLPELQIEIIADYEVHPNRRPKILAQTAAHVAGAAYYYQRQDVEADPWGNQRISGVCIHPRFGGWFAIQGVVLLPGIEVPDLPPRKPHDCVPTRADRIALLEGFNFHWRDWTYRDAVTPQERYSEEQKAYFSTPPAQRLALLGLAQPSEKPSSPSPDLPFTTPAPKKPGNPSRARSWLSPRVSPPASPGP


Key:
[1] = target: T1, His-MMACHC-wt; parameters: method as in PMID 18779575; conditions: cited from earlier work
[2] = target: T2, MMACHC-wt; assay: Differential scanning fluorimetry (DSF), stabilization by cobalamins; type: binding
Protocol: (§1) DSF was performed and analyzed as described in Niesen et al., with minor modifications. Purified MMACHC proteins were diluted to 0.1 mg/ml (3 μM) in buffer (10 mM HEPES pH 7.5, 0.5 M NaCl, 5% glycerol) with 1:1000 Sypro Orange (Invitrogen) and run in triplicate. The proteins were heated from 5 to 75 °C with a ramp rate of 1 °C/min in a thermocycler (Bio-rad C1000 Thermocycler, CFX96 Real-time system). All graphs were normalized so that minimum fluorescence was set to 0 and maximum fluorescence set to 1. […] Final graphs and AC50’s were generated using Kadeidagraph 4.0 software (Synergy Software, Reading, PA). AC50’s were determined by fitting the ΔTm vs. ligand concentration curves to the equation ΔTm = ΔTm max[S]/(AC50 + [S]) where ΔTm is the change in melting temperature (Tm[protein + ligand] − Tm[protein]), ΔTm max is the maximal change in Tm at saturating (50 μM) ligand concentration and [S] is the ligand concentration.
(§2) Wild-type (MMACHC-wt) and mutant (MMACHC-R161Q) MMACHC were expressed and purified to >95% purity, with His-tag removed, as judged by SDS–PAGE (Fig. 2A). In order to investigate the thermostability of MMACHC we used DSF, a method that measures protein stability and ligand-induced changes in stability [[20,21]]. DSF uses an environmentally sensitive dye, such as Sypro orange, to monitor protein-unfolding caused by heat denaturation. As the protein unfolds, the dye, which has a higher fluorescence quantum yield in nonpolar environments than in aqueous media, binds to hydrophobic regions of the protein, causing a large increase in fluorescence [[22,23]]. Protein stability is expressed as the melting point of the protein (Tm), that is, the transition midpoint of the fluorescence curve, corresponding to the temperature at which half of the protein molecules are folded and half are unfolded. […] Even lower was the stability of MMACHC-R161Q (Tm = 37.1 ± 0.7 °C) (Fig. 2B). The difference in Tm was small but nonetheless significant (p < 0.01). A second difference between the wild-type and mutant proteins was the shape of the unfolding curves, with the unfolding of the mutant protein showing high cooperativity indicating a two-state unfolding mechanism while the unfolding of the wild-type protein stretched over a larger temperature range and comprised two phases (Fig. 2B; also Fig. 3A at 0 μM OHCbl).

[3] = target: T3, MMACHC-R161Q; assay: as above; type: binding; conditions: DSF
Protocol: as §1, §2

[4] = Isothermal denaturation (ITD); type: physicochemical; conditions: constant 35 °C over 120 min, Sypro orange fluorescence
Protocol: ITD was performed as previously described with minor variations. Samples of both proteins prepared similarly as for DSF (at similar concentrations) were kept at constant temperature of 35 °C while monitoring the fluorescence of Sypro orange at intervals of one minute in a thermocycler (Bio-rad C1000 Thermocycler, CFX96 Real-time system) over 120 min (n = 12 for each protein).
We performed isothermal […] (ITD) to investigate further the difference in stability between the two proteins. ITD has been described as being more sensitive than DSF for detecting small changes in protein stability. ITD measures the unfolding of proteins at a constant temperature, typically chosen as a few degrees below the Tm, using a similar procedure as DSF including the use of Sypro orange as the reporter dye. […] After 120 min the intensity reached approximately half of the amplitude seen for unfolding with DSF (Fig. 2B). […] This difference cannot be explained with the relatively small difference in the Tm. If ITD is performed at a temperature that falls within the range of the unfolding transition a gradual increase in the proportion of unfolded protein molecules, i.e. a constant increase in fluorescence intensity, would still be expected even at temperatures […] the Tm (18).

[5] = DSF thermostability of apo protein; type: physicochemical; conditions: apo form, His-tag removed, no ligand
Protocol: as §1
Wild-type (MMACHC-wt) and mutant (MMACHC-R161Q) MMACHC were expressed and purified to >95% purity, with His-tag removed, as judged by SDS–PAGE (Fig. 2A). […] As the protein unfolds, the dye, which has a higher fluorescence quantum yield in nonpolar environments than in aqueous media, binds to hydrophobic regions of the protein, causing a large increase in fluorescence [[22,23]]. […]

[6] = Tm at 50 μM ligand minus Tm at 0 μM ligand
[7] = half-maximal effective ligand concentration for stabilization, 3 μM protein, fit of ΔTm vs ligand concentration

Row | Molecule | binding conformation (base-on/off) [1] | ΔTm max [2, 6] | AC50 [2, 7] | ΔTm max [3, 6] | AC50 [3, 7] | unfolding by isothermal denaturation [4] | melting temperature (Tm) [5]
1 | C/C1=C2/[N-][C@H]([C@H](CC(N)=O)[C@@]2(C)CCC(=O)NC[C@H](C)OP(=O)([O-])O[C@H]2[C@@H](O)[C@@H](n3cnc4cc(C)c(C)cc43)O[C@@H]2CO)[C@]2(C)N=C(/C(C)=C3N=C(/C=C4N=C1[C@@H](CCC(N)=O)C\4(C)C)[C@@H](CCC(N)=O)[C@]\3(C)CC(N)=O)[C@@H](CCC(N)=O)[C@]2(C)CC(N)=O.[CH3-].[Co+3] [MeCbl, methylcobalamin] | base-off | 12.7 ± 0.4 °C | 2.1 ± 0.3 µM | 9.3 ± 0.3 °C | 8 ± 1.6 µM | – | –
2 | MMACHC-wt: recombinant wild-type MMACHC protein, His-tag removed by TEV (protein, UniProt Q9Y4U1 1-282, looked up) Cyanocobalamin reductase / …: MEPKVAELKQKIEDTLCPFGFEVYPFQVAWYNELLPPAFHLPLPGPTLAFLVLSTPAMFDRALKPFLQSCHLRMLTDPVDQCVAYHLGRVRESLPELQIEIIADYEVHPNRRPKILAQTAAHVAGAAYYYQRQDVEADPWGNQRISGVCIHPRFGGWFAIRGVVLLPGIEVPDLPPRKPHDCVPTRADRIALLEGFNFHWRDWTYRDAVTPQERYSEEQKAYFSTPPAQRLALLGLAQPSEKPSSPSPDLPFTTPAPKKPGNPSRARSWLSPRVSPPASPGP | – | – | – | – | – | did not unfold | 39.3 ± 1.0 °C
3 | MMACHC-R161Q: recombinant MMACHC protein carrying the late-onset cblC mutation R161Q, His-tag removed (protein, UniProt Q9Y4U1 1-282, looked up, variant R161Q) Cyanocobalamin reductase / …: MEPKVAELKQKIEDTLCPFGFEVYPFQVAWYNELLPPAFHLPLPGPTLAFLVLSTPAMFDRALKPFLQSCHLRMLTDPVDQCVAYHLGRVRESLPELQIEIIADYEVHPNRRPKILAQTAAHVAGAAYYYQRQDVEADPWGNQRISGVCIHPRFGGWFAIQGVVLLPGIEVPDLPPRKPHDCVPTRADRIALLEGFNFHWRDWTYRDAVTPQERYSEEQKAYFSTPPAQRLALLGLAQPSEKPSSPSPDLPFTTPAPKKPGNPSRARSWLSPRVSPPASPGP | – | – | – | – | – | unfolding | 37.1 ± 0.7 °C
